The values that follow are results of earlier work, collected in patent US20200138036A1, “FUMIGANT FORMULATION” (Linde Aktiengesellschaft, priority 2017, published 2020).

In general, vapour pressure refers to the pressure of vapour in equilibrium with the condensed phase.

Molecules are shown by their SMILES. Counter-ions that a name gives are not always drawn.

For this series the following is noted: at 20° C.

In the case of `CCOC=O` [Ethyl formate], the vapour pressure is 25.9 kPa.
